Legend:
myosin light chain (MLC) = assay: Western blot of phosphorylated myosin light chain; type: cell-based, human; conditions: one and six hours after plating
Experimental: HS181 cells were trypsinized into single cell suspension as described above. For inhibition experiments, the cells were kept in O3 medium with blocking antibodies or pathway inhibitors for 30 minutes and then 450K cells were plated on 35 mm dishes precoated with the appropriate matrix coating. For other experiments, same number of cells was plated directly after trypsinization. […] After two washings in ice-cold PBS, the plates with cells were snap frozen in liquid nitrogen and stored at −80° C. To prepare samples for western blots and ELISA, the plates were slowly thawed and kept on ice with 100-150 μl of lysis buffer (50 mM Tris-HCl, pH7.5, 150 mM NaCl, 0.5% deoxycholate, 0.5% SDS, 1% Triton X-100, 1% Igepal, Complete™ (Roche) and Phospho-Stop™ (Roche)) on top. Then, the cells were scraped, pipetted and sheared through a 27G ¾″ needle. After that, the cell pellets were clarified by centrifugation at 16,100 rcf for 15 minutes at 4° C. For western blots, 4-12% gradient gels were used for SDS electrophoresis and the proteins were transferred to PVDF membranes. The membrane was hybridized with the antibody of interest according to the manufacturer's instructions. Chemoluminescent HRP-substrate from Amersham Biosciences was used for visualization. For the densitometry analysis the films were scanned at 2,400 dpi and analyzed by the Chemilmager5500 program (1D-Multi Line densitometry mode). […]

human ES cells = assay: Long-term culture with single cell dissociation passaging (Example 1); type: cell-based; conditions: for proliferation rate compared with Matrigel / classical methods: single cell suspension passaging vs passaging in clumps
Experimental: Human ES cells were cultured on r-laminin-521-coated laboratory dishes in chemically defined O3 medium (described in Rodin et al., Nature Biotechnol., vol. 28, pp. 611-615 (2010)) at 37° C. in 5% CO2. Cells were routinely passed once every 10-12 days by exposure to Trypsin-EDTA solution (GIBCO Invitrogen) for 5 minutes at 37° C. They were then gently pipetted to break into single-cell suspension and defined trypsin inhibitor (GIBCO Invitrogen) was added. The cell suspension was centrifuged […], the supernatant discarded, the cell pellet resuspended in prewarmed O3 medium, and cells were then passed through a 40 μm sieve. After that cells were plated on new r-laminin-521-coated dishes at a concentration 30 Kcells/cm^2 (1:25-1:30 split ratio). Cells were fed once a day with fresh medium prewarmed in an incubator for 1 hour, except for the first day after a passage, when only a few drops of fresh medium were added. Control cells of the same line were cultured on Matrigel (BD Biosciences) in O3 medium as described in Rodin et al., Nature Biotechnol., vol. 28, pp. 611-615 (2010). Control cells were passaged in pieces.

Integrin α6β1 = Integrin α6β1 (Homo sapiens, UniProt P05556+P23229); conditions: cited from earlier work
Integrin α6β1, sequence (P23229 24-1130): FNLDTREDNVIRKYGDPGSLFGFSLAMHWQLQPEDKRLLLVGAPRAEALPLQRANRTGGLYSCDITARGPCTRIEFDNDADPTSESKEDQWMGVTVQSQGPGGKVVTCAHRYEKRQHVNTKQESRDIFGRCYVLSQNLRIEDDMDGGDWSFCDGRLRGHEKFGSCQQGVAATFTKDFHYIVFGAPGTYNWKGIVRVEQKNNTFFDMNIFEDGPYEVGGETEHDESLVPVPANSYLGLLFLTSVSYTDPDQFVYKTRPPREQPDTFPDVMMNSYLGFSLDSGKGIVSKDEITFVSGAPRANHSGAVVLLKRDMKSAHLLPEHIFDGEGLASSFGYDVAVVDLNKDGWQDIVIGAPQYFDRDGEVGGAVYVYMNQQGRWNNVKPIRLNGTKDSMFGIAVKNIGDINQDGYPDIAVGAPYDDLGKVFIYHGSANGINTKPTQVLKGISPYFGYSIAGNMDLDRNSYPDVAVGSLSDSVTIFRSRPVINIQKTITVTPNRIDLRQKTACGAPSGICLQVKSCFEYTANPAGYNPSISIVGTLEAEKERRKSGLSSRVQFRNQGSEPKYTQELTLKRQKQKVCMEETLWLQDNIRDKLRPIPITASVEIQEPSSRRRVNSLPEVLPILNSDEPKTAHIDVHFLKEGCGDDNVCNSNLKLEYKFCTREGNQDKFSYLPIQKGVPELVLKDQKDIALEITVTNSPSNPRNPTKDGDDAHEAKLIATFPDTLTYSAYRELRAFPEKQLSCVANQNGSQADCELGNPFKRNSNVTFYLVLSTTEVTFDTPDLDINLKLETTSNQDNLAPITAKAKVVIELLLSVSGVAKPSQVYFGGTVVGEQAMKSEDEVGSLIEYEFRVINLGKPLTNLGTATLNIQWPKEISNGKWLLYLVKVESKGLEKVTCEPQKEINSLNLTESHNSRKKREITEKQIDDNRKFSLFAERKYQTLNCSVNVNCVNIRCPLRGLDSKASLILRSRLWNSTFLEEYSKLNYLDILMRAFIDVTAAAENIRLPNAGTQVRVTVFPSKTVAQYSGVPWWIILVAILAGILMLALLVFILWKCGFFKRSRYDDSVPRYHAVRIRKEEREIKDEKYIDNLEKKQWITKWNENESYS
Integrin α6β1, sequence (P05556 21-798): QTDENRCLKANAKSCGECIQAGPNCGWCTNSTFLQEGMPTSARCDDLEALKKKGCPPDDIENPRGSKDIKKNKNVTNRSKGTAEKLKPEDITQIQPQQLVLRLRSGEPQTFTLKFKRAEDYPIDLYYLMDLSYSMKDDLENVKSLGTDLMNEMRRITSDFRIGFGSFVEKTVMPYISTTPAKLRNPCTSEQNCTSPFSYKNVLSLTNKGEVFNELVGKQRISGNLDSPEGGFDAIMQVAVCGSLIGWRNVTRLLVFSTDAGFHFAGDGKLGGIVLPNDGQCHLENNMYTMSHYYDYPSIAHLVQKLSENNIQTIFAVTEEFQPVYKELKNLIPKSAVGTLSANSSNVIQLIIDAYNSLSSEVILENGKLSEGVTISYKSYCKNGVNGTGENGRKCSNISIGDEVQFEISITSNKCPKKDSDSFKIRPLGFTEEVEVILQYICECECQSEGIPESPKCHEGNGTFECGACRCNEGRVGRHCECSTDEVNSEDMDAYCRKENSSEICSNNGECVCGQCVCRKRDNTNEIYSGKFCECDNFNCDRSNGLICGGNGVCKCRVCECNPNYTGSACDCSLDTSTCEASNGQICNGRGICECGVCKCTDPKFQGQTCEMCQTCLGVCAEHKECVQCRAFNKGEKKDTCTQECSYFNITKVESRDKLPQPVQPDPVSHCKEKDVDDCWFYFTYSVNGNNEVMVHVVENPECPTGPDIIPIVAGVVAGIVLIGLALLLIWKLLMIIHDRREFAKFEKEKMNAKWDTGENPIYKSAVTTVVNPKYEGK

HS181, HS401, H1 cells = assay: Long-term self-renewal of hES cells on LN-521 (Example 2); type: cell-based, human
Experimental: Human ES cells of HS181 and HS401 were cultured on LN-521-coated culture dishes in O3 medium (described in Rodin et al., Nature Biotechnol., vol. 28, pp. 611-615 (2010) with pH was adjusted to 7.35), mTeSR1 (STEMCELL Technologies) and chemically defined and xeno-free TeSR2 (STEMCELL Technologies) at 37° C., 5% CO2. Initially, cells of the lines were transferred onto a LN-521 coating from a human feeder cell layer by careful scratching using a sterile knife with subsequent trypsinization, or the cells were trypsinized into single cell suspension from a LN-511 coating. The cells were provided once a day with fresh medium pre-warmed in an incubator for one hour, except for the first day after plating, when only a few drops of fresh medium were added. Cells were routinely passed once in 10-12 days by exposure to Trypsin/EDTA (GIBCO Invitrogen Corporation, Paisley, Scotland) for 5 minutes at 37° C., 5% CO2. They were then gently pipetted to break into single-cell suspension and a Defined Trypsin Inhibitor (GIBCO Invitrogen) was added. The cell suspension was centrifuged at 25 rcf for 4 minutes, the supernatant was discarded, the cell pellet was resuspended in prewarmed O3 medium, and the cells were then passed through a 40 μm sieve. Subsequently, the cells were plated on new LN-521-coated dishes at a concentration of 30,000 cells/cm^2 in 1:25-1:30 split ratios. Control cells of the same line were cultured on Matrigel (STEMCELL Technologies) and LN-511 in O3 medium as described previously.^9
For defined and xeno-free cultures, TeSR2 (STEMCELL Technologies) medium and defined free from any animal derived component TrypLE™ Select (GIBCO Invitrogen Corporation, Paisley, Scotland) enzyme were used. The cells were passed every 10-14 days by exposure to TrypLE™ Select for 4-5 minutes at 37° C., 5% CO2. Then, the enzyme was carefully aspirated and prewarmed TeSR2 medium was added. After that, the cells were gently pipetted to break into single-cell suspension, centrifuged, the supernatant was discarded, and the cell pellet was resuspended in prewarmed TeSR2. The cells were then passed through a 40 μm sieve and plated on a fresh LN-521 coated dish.

With “LN-521: protein formed by joining α5, β2 and γ1 chains together; human recombinant, produced in HEK293 cells” the “phosphorylation of MLC compared with cells on Matrigel and LN-111” value (myosin light chain (MLC)) was “even higher”, the “passages in single cell suspension giving the same number of cell divisions as cultures on Matrigel after 20 passages” value (human ES cells; 3 passages = 1 month, Matrigel passaged in pieces, 20 passages (3 months / 100 days)) was 3 passages and the “passages with robust proliferation at a stable and high rate” value (human ES cells; single cell passaging every 10-12 days, 1:25 to 1:30 ratios, 3 months) was “at least 9 passages”. The “proliferation rate compared with Matrigel / classical methods” value (human ES cells) was “much faster rate”, the “proliferation rate compared with Matrigel / classical methods” value (human ES cells; listed as laminin-521) was “higher rate” and the “binding affinity of integrin α6β1” value (Integrin α6β1) was “higher than that for LN-111”. The “passages of proliferation, HS401 cells” value (HS181, HS401, H1 cells; O3 medium, 2 months) was no less than 5 passages, the “passages of proliferation, H1 cells” value (HS181, HS401, H1 cells; O3 medium, 6 months) was no less than 15 passages and the “passages of proliferation, HS181 cells” value (HS181, HS401, H1 cells; O3 medium, 9 months) was “at least 24 passages”. The “passages cultured, HS401 cells” value (HS181, HS401, H1 cells; TeSR2, TrypLE Select, xeno-free, 1.5 months) was 4 passages, the “passages cultured, H1 cells” value (HS181, HS401, H1 cells; TeSR2, TrypLE Select, xeno-free, 5 months) was 12 passages and the “plating efficacy after a passage in TeSR2 compared with O3 or mTeSR1 media” value (HS181, HS401, H1 cells; TeSR2 medium and TrypLE Select) was “slightly lower”.
